Test results as given in US20180161310A1, “COMPOUNDS AND METHODS FOR THE TREATMENT OF NEUROLOGICAL DISORDERS” (Teleos Therapeutics, LLC, priority 2016, published 2018).
“And” between values parts separate entries of the source, which are not always exact repeats. Identical values can stand only once.

Assays:
human KCC2 = target: T1, human KCC2 (Homo sapiens, UniProt Q9H2X9); assay: Thallium flux assay in HEK293 cells transiently transfected with human KCC2; format: cell-based; conditions: HEK293 cells over-expressing human KCC2
T1 construct: expressed in transfected cells; host or cells: HEK293
T1 sequence (Q9H2X9 1-1139): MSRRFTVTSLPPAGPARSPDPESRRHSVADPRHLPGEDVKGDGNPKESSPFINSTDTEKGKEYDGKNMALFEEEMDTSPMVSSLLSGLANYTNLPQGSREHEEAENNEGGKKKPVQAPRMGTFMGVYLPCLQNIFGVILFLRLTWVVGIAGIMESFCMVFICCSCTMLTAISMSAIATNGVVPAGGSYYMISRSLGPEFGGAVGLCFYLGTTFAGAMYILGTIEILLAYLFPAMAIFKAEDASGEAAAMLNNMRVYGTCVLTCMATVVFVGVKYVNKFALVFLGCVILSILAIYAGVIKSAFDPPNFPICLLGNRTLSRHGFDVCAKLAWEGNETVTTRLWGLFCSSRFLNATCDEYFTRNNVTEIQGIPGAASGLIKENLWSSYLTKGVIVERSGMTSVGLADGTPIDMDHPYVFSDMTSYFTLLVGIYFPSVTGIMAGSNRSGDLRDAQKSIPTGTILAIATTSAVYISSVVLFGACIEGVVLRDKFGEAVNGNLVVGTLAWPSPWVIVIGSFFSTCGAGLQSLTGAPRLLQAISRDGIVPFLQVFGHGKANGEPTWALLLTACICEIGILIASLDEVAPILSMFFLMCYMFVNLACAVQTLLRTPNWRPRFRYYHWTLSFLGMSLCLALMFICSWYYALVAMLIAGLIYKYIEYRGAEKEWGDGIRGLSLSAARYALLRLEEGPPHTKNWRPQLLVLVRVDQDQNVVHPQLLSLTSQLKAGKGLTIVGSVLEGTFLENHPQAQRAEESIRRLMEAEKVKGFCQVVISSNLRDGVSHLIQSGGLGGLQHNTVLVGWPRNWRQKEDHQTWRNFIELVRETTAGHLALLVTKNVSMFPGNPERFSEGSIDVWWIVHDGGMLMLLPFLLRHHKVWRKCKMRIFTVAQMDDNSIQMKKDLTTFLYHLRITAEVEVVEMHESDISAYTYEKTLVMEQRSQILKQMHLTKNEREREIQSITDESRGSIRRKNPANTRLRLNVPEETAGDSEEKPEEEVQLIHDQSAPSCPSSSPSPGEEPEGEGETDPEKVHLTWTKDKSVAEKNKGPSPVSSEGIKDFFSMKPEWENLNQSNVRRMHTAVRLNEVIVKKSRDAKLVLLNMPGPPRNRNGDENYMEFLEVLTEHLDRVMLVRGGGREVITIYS
Method: Phenotype-based screens, as described herein, are high-content and make use of complex behaviors to identify novel modulators, which may function through various mechanisms. Thus, hits identified in the suppressor screens described herein may or may not act directly on KCC2. To test whether the three hit compounds directly alter the activity of the transporter, thallium flux assays were performed in HEK293 cells transiently transfected with human KCC2 in order to measure the influx rate of KCC2 activity (see, e.g., Appendix B).

zebrafish larvae = format: in vivo
Excerpt: In an effort to determine how pharmacological inhibition of KCC2 affects zebrafish behaviors, 7 days post-fertilization (dpf) zebrafish larvae can be treated with two analogs of the selective KCC2 inhibitor, VU0463271 and VU0240551, and their behavioral responses in a battery of behavioral assays can be assessed. These behavioral assays can include a series of visual and acoustic stimuli presented to larval zebrafish in various contexts and combinations to elicit robust and reproducible patterns of activity. For example, behavioral assays can include two acoustic-stimulus-response (ASR1 and ASR2) assays, six visual-stimulus-response (VSR1-VSR6) assays, and three assays that combine acoustic and visual stimulus responses (AVSR1-AVSR3). Together, such a battery of behavioral assays use six stimuli, including red light (600 nm), blue light (420 nm), violet light (405 nm), green light (525 nm), low-intensity sound (60 dB) and high-intensity sound (70 dB). Behavioral responses of the larval zebrafish can be measured by a motion index (MI) that quantifies the motor activity of at least about 8 zebrafish larvae in each well of a 96-well plate.
Referring to FIGS. 1A-1B, zebrafish behavioral profiles can include a battery of individual behavioral assays labeled ASR1, AVSR1, ASR2, VSR1, VSR2, VSR3, VSR4, AVSR2, VSR5, AVSR3, and VSR6, as described herein. These behavioral assays can be combined to form a Motion Index (MI), which is a quantification of the motor activity of at least about 8 zebrafish larvae in each well of a 96-well plate. As shown in the representative images of FIGS. 1A-1B, zebrafish larvae were treated with DMSO (control), VU0463271 (FIG. 1A), or pentylentetrazol or PTZ (FIG. 1B).
Treatment with increasing doses of VU0463271 induced a unique and dose-dependent profile of behavioral responses, detectable at 2.5 μM and 5 μM. […] This relatively low concentration of VU0463271 elicited a reproducible behavioral profile with altered sensitivity of the fish larvae to specific combinations of stimuli. […] The increased MI in the AVSR1 and AVSR3 assays due to VU0463271 treatment reflects a seizure-like hyperexcitability in the larval fish.
Additionally, seizures have been induced in 7 dpf zebrafish larvae using pentylentetrazol (PTZ) treatment, and motor and electroencephalographic (EEG) responses were consistent with seizure phenotypes.

Row | SMILES | rate of 10 mM [K+]o-induced thallium influx (KCC2-mediated flux) (human KCC2) | MI in the ASR2 and VSR assays (zebrafish larvae; 2.5 μM) | behavioral responses in the AVSR1 and AVSR3 assays (zebrafish larvae; 2.5 μM, seizure-like hyperexcitability) | effect on MI along the assay battery (zebrafish larvae; 10 μM, very low MI) | concentration at which the dose-dependent profile of behavioral responses was detectable (zebrafish larvae; 7 dpf larvae)
1 | Cc1csc(N(C(=O)CSc2ccc(-c3ccccc3)nn2)C2CC2)n1 [VU0463271, N-Cyclopropyl-N-(4-methyl-2-thiazolyl)-2-[(6-phenyl-3-pyridazinyl)thio]acetamide] | significantly reduced | reduced | increased | sedative effect | 2.5 µM and 5 µM
2 | CCN1C(=O)C=CC1=O [N-ethylmaleimide] | significantly increased |  |  |  | 
